# Assay results as given in ChEMBL document CHEMBL3885861, “Open TG-GATES”.
# Species on record: Rattus norvegicus
# Test: Open TG-GATES - Regimen: Single
# Assay type: toxicity, organism-based, Sprague-Dawley
# Design: regimen Single, gender Male, age 6 weeks
# Details: in vivo, po, 600 mg/kg, route gavage, dose level High; for APTT / Bas / Eos / Fbg / Hb / Ht / Lym / MCH / MCHC / MCV / Mono / Neu / PT / Plat / RBC / Ret / WBC: tissue Blood; for KIDNEY_L / KIDNEY_R / KIDNEY_TOTAL: tissue Kidney; for LIVER: tissue Liver; for A/G / ALP / ALT / AST / BUN / CRE / Ca / Cl / DBIL / GLC / IP / K / LDH / Na / PL / RALB / TBIL / TC / TG / TP / gamma-GTP: tissue Plasma
smiles,measurement,setting,value
CCOC(=O)[C@H](CCc1ccccc1)N[C@@H](C)C(=O)N1CCC[C@H]1C(=O)O,TERMINAL_BW,3 h,218.7 g
same,APTT,3 h,16.5 s
same,Bas,3 h,0%
same,Eos,3 h,1.4%
same,Fbg,3 h,212 mg/dL
same,Hb,3 h,13.3 g/dL
same,Ht,3 h,40.4%
same,Lym,3 h,74%
same,MCH,3 h,21.6 pg
same,MCHC,3 h,32.9%
same,MCV,3 h,65.9 fL
same,Mono,3 h,9.8%
same,Neu,3 h,14.6%
same,PT,3 h,12 s
same,Plat,3 h,109.7 x10_4/uL
same,RBC,3 h,614.2 x10_4/ul
same,Ret,3 h,8.9%
same,WBC,3 h,93.4 x10_2/uL
same,KIDNEY_L,3 h,1 g
same,KIDNEY_R,3 h,1 g
same,KIDNEY_TOTAL,3 h,1.9 g
same,LIVER,3 h,10 g
same,A/G,3 h,2
same,ALP,3 h,719.2 IU/L
same,ALT,3 h,83.4 IU/L
same,AST,3 h,70.2 IU/L
same,BUN,3 h,22.8 mg/dL
same,CRE,3 h,0.6 mg/dL
same,Ca,3 h,10.3 mg/dL
same,Cl,3 h,106.8 meq/L
same,DBIL,3 h,0.022 mg/dL
same,GLC,3 h,201 mg/dL
same,IP,3 h,9 mg/dL
same,K,3 h,4.9 meq/L
same,LDH,3 h,103.4 IU/L
same,Na,3 h,138.6 meq/L
same,PL,3 h,125.4 mg/dL
same,RALB,3 h,3.6 g/dL
same,TBIL,3 h,0.3 mg/dL
same,TC,3 h,73.2 mg/dL
same,TG,3 h,59.4 mg/dL
same,TP,3 h,5.4 g/dL
same,gamma-GTP,3 h,2.4 IU/L
same,TERMINAL_BW,6 h,215.5 g
same,APTT,6 h,16.6 s
same,Bas,6 h,0%
same,Eos,6 h,1.2%
same,Fbg,6 h,211.2 mg/dL
same,Hb,6 h,13.3 g/dL
same,Ht,6 h,40.9%
same,Lym,6 h,75.4%
same,MCH,6 h,21.2 pg
same,MCHC,6 h,32.7%
same,MCV,6 h,64.8 fL
same,Mono,6 h,7.4%
same,Neu,6 h,16.2%
same,PT,6 h,11.9 s
same,Plat,6 h,113.3 x10_4/uL
same,RBC,6 h,632.4 x10_4/ul
same,Ret,6 h,8.3%
same,WBC,6 h,96.5 x10_2/uL
same,KIDNEY_L,6 h,1 g
same,KIDNEY_R,6 h,1 g
same,KIDNEY_TOTAL,6 h,2 g
same,LIVER,6 h,9.1 g
same,A/G,6 h,2.2
same,ALP,6 h,701.6 IU/L
same,ALT,6 h,82.8 IU/L
same,AST,6 h,75.8 IU/L
same,BUN,6 h,28.2 mg/dL
same,CRE,6 h,0.6 mg/dL
same,Ca,6 h,10.5 mg/dL
same,Cl,6 h,107.2 meq/L
same,DBIL,6 h,0.022 mg/dL
same,GLC,6 h,207 mg/dL
same,IP,6 h,9.5 mg/dL
same,K,6 h,5.2 meq/L
same,LDH,6 h,100.8 IU/L
same,Na,6 h,138 meq/L
same,PL,6 h,126.2 mg/dL
same,RALB,6 h,3.6 g/dL
same,TBIL,6 h,0.5 mg/dL
same,TC,6 h,68.2 mg/dL
same,TG,6 h,36.8 mg/dL
same,TP,6 h,5.2 g/dL
same,gamma-GTP,6 h,1.6 IU/L
same,TERMINAL_BW,9 h,218.5 g
same,APTT,9 h,16.2 s
same,Bas,9 h,0%
same,Eos,9 h,1%
same,Fbg,9 h,208.8 mg/dL
same,Hb,9 h,12.7 g/dL
same,Ht,9 h,39.2%
same,Lym,9 h,78.6%
same,MCH,9 h,22.1 pg
same,MCHC,9 h,32.4%
same,MCV,9 h,68.3 fL
same,Mono,9 h,4.2%
same,Neu,9 h,16.2%
same,PT,9 h,11.6 s
same,Plat,9 h,111.9 x10_4/uL
same,RBC,9 h,575.2 x10_4/ul
same,Ret,9 h,9.9%
same,WBC,9 h,91.7 x10_2/uL
same,KIDNEY_L,9 h,1 g
same,KIDNEY_R,9 h,1 g
same,KIDNEY_TOTAL,9 h,1.9 g
same,LIVER,9 h,8.5 g
same,A/G,9 h,1.8
same,ALP,9 h,827.2 IU/L
same,ALT,9 h,56.2 IU/L
same,AST,9 h,65.6 IU/L
same,BUN,9 h,40.8 mg/dL
same,CRE,9 h,0.5 mg/dL
same,Ca,9 h,10.9 mg/dL
same,Cl,9 h,109 meq/L
same,DBIL,9 h,0.032 mg/dL
same,GLC,9 h,196.4 mg/dL
same,IP,9 h,11.1 mg/dL
same,K,9 h,5.8 meq/L
same,LDH,9 h,66 IU/L
same,Na,9 h,138.8 meq/L
same,PL,9 h,133.8 mg/dL
same,RALB,9 h,3.4 g/dL
same,TBIL,9 h,0.4 mg/dL
same,TC,9 h,76 mg/dL
same,TG,9 h,26 mg/dL
same,TP,9 h,5.3 g/dL
same,gamma-GTP,9 h,1.8 IU/L
same,TERMINAL_BW,24 h,231.8 g
same,APTT,24 h,16.2 s
same,Bas,24 h,0%
same,Eos,24 h,1.2%
same,Fbg,24 h,215.6 mg/dL
same,Hb,24 h,12.8 g/dL
same,Ht,24 h,38.7%
same,Lym,24 h,72.2%
same,MCH,24 h,21.6 pg
same,MCHC,24 h,33%
same,MCV,24 h,65.4 fL
same,Mono,24 h,13%
same,Neu,24 h,13.8%
same,PT,24 h,10.9 s
same,Plat,24 h,115.6 x10_4/uL
same,RBC,24 h,592.6 x10_4/ul
same,Ret,24 h,9.2%
same,WBC,24 h,103.4 x10_2/uL
same,KIDNEY_L,24 h,1 g
same,KIDNEY_R,24 h,1 g
same,KIDNEY_TOTAL,24 h,2 g
same,LIVER,24 h,12.5 g
same,A/G,24 h,2
same,ALP,24 h,1036 IU/L
same,ALT,24 h,34.4 IU/L
same,AST,24 h,60 IU/L
same,BUN,24 h,20 mg/dL
same,CRE,24 h,0.5 mg/dL
same,Ca,24 h,11.3 mg/dL
same,Cl,24 h,104.4 meq/L
same,DBIL,24 h,0 mg/dL
same,GLC,24 h,207.4 mg/dL
same,IP,24 h,8.9 mg/dL
same,K,24 h,4.8 meq/L
same,LDH,24 h,101.6 IU/L
same,Na,24 h,138.6 meq/L
same,PL,24 h,170.6 mg/dL
same,RALB,24 h,3.8 g/dL
same,TBIL,24 h,0.4 mg/dL
same,TC,24 h,89.6 mg/dL
same,TG,24 h,132.4 mg/dL
same,TP,24 h,5.6 g/dL
same,gamma-GTP,24 h,2.2 IU/L
